Source: US6458585B1, “Cytokine-free culture of dendritic cells” (Nexell Therapeutics Inc., priority 1996, dated 2002)

Experiments:
Format in all cases: cell-based, human
adherent PBMNC [1] = test: S100 immunohistochemistry of plastic adherent cells cultured with non-cytokine additives; conditions: for percentages of S100+ cells: day 7, additive added to GM-CSF 50 ng/ml
Description: Immunocytochemical staining: PBS (phosphate buffered saline) was made by dissolving 5 PBS tablets into 1000 ml millipore water. Cytospin slides were soaked in PBS. […] Slides were rinsed with PBS one time. Non-specific binding sites were blocked by incubating with normal serum matching source of secondary antibody (i.e. if secondary antibody is biotinylated goat-anti-mouse, used normal goat serum) at room temp. for 15 min. in a humidified environment. Excess serum was shaken from slides and placed 100 ul of primary antibody on slide, making sure cells are covered with liquid and incubated in humidified environment, room temp, for one hour. Negative control slides were incubated with normal serum for this hour. Slides were rinsed 3 times with PBS. Slides were incubated with biotinylated antibody reactive against the primary antibody (i.e. if primary antibody is mouse-anti-human, use a biotinylated goat-anti-mouse antibody) for 1 hour in humidity. Slides were rinsed 3 times with PBS. Slides were incubated with streptavidin-peroxidase, 2 drops/slide, for 30 min. in humidity. Slides were rinsed 3 times with PBS.
Chromagen solution was made with 5 ml millipore water+2 drops of chromagen buffer+1 drop of concentrated chromagen+1 drop of substrate, and 4-5 drops were added to each slide. […] Slides were counterstained with hematoxylin for about 5 min, or until cell nuclei were stained purple. Cells were rinsed with tap water and allowed to air dry. Slides were covered with crystal mount and oven dried at 80 degrees for 15 min. Slides were allowed to cool, then coversliped with mounting medium.
(§1) Enrichment and Culture of Adherent Cells Using Polystyrene Tissue Culture Plates: PBMNC were resuspended in culture media (X-VIVO 15™+10% autologous serum) at 2×10^6 cells/ml. Cells were placed into 48 well polystyrene tissue culture plates […] and incubated for 2 hours in a 5% CO2, ambient O2, 37° C. humidified incubator. Non-adherent cells were removed from the plates then wells were rinsed with X-VIVO 15™ containing no serum. Cells remaining in the wells were adherent cells. These cells were cultured by adding 2 ml of X-VIVO 15™ to each well plus GM-CSF and IL-4 at final concentrations of 50 ng/ml and 1000 U/ml or the following: cAMP at 0.5 mM, dibutyryl cAMP at 0.1 mM, NaF at 0.25 mM, theophylline at 0.5 mM, PGE at 0.1 mM, Vitamin D3 at 2.5 uM, Vitamin E at 0.1%, Retinoic Acid at 10^−6 M, PMA at 1 pM, Linoleic Acid at 5 ug/ml, or Ca^++ Ionophore at 10 mM. Furthermore, cells were also cultured with the above non-cytokine additives plus GM-CSF at 50 ng/ml. Cells were cultured in a 5% CO2, ambient O2, 37° C. humidified incubator for 7 days.
(§2) Cytospin slide preparation, Wright-Geimsa and immunohistochemical staining of the cultured cells were conducted as described in Example 1 and 2 above. Mixed lymphocyte reactions (MLR's) were setup using T cells (responders) and dendritic cell enriched cultures (stimulators) from bulk PBMNC cultures, as described above in Example 1.
(§3) Results: In the set of experiments using plastic adherent cells grown in polystyrene tissue culture plates, a Day 0 analysis of the cells was not performed. However, these cultures were analyzed for the presence of DC on days 4 and 7. Analysis perfomed were cell counts, viability via propidium iodide, morphology under Wright-Geimsa staining, and immunohistochemical staining using an anti-S100 antibody.

adherent PBMNC [2] = test: Cell counts and viability of plastic adherent cells cultured with non-cytokine additives in polystyrene plates; design: % VIABLE: concentration or dose not given beside the values; conditions: for % VIABLE: propidium iodide
Description: Viability Determination: Prior to acquisition, 5 ul propidium iodide (PI) was added to each tube for use as a viability check. The cells were vortexed and acquired within 10 min of PI addition.
as §1, §3

adherent PBMNC [3] = test: DC morphology (Wright-Geimsa) of plastic adherent cells cultured with non-cytokine additives
Description: Cytofunnels were attached to microscope slides. 50,000 to 100,000 cells were removed from each culture and resuspended in approximately 100 to 200 ul of PBS-CMF. Slides were placed in the Cytospin® centrifuge and spun at 100 rpm for 4 min. Cytofunnels were removed from the slides and the slides were air dried for 1 minute. Ten drops of Wright-Geimsa stain were placed onto each slide and allowed to fix for 1 to 2 minutes. Ten drops of water were added to each slide and allowed to sit for 2 to 4 minutes. The slides were rinsed and air dried.
Reading of Cytospin Slides: Slides were read under phase contrast microscopy, 40× and 60× oil magnification. One hundred cells were identified and characterized morphologically as either dendritic cells or non-dendritic cells (lymphocytes and monocyte, or CD34+-derived cells in those cases). Digital images were taken using a color monitor and color video printer.
as §1, §2, §3

Row | Molecule | % S100+ (adherent PBMNC [1]; Day 4, with GM-CSF present) [%] | % S100+ (adherent PBMNC [1]; Day 4, without GM-CSF) [%] | % S100+ (adherent PBMNC [1]; Day 7, with GM-CSF present) [%] | % S100+ (adherent PBMNC [1]; Day 7, without GM-CSF) [%] | TOTAL CELLS (adherent PBMNC [2]; Day 4, with GM-CSF present) [E + 05] | % VIABLE (adherent PBMNC [2]; Day 4, with GM-CSF present) [%] | TOTAL CELLS (adherent PBMNC [2]; Day 4, without GM-CSF) [E + 05] | % VIABLE (adherent PBMNC [2]; Day 4, without GM-CSF) [%] | TOTAL CELLS (adherent PBMNC [2]; Day 7, with GM-CSF present) [E + 05] | % VIABLE (adherent PBMNC [2]; Day 7, with GM-CSF present) [%] | TOTAL CELLS (adherent PBMNC [2]; Day 7, without GM-CSF) [E + 05] | % VIABLE (adherent PBMNC [2]; Day 7, without GM-CSF) [%] | % DC (adherent PBMNC [3]; Day 4, with GM-CSF present) [%] | % DC (adherent PBMNC [3]; Day 4, without GM-CSF) [%] | % DC (adherent PBMNC [3]; Day 7, with GM-CSF present) [%] | % DC (adherent PBMNC [3]; Day 7, without GM-CSF) [%] | percentages of S100+ cells (adherent PBMNC [1])
1 | Cc1c(C)c2c(c(C)c1O)CCC(C)(CCCC(C)CCCC(C)CCCC(C)C)O2 (mixture of isomers) [Vit E] | 26.00 | 19.00 | 19.00 | 11.00 | 1.38 | 97.48 | 1.64 | 78.65 | 1.05 | 94.21 | 1.75 | 71.91 | 4.50 | 2.50 | 6.00 | 3.00 | –
2 | CNc1ccc2oc(CC3OC4(CCC3C)OC(C(C)C(=O)c3ccc[nH]3)C(C)CC4C)nc2c1C(=O)O (stereo not drawn) [Ca + + Iono] | 20.00 | – | – | 29.00 | 1.66 | 96.23 | – | – | – | – | 1.54 | 84.02 | 9.50 | – | – | 6.00 | –
3 | [F-].[Na+] [NaF, Sodium Fluoride] | 7.00 | 0.00 | 5.00 | 2.50 | 1.90 | 67.04 | 2.19 | 72.46 | 1.44 | 30.61 | 2.18 | 44.31 | 0.00 | 0.00 | 0.00 | 0.00 | –
4 | CCCCC[C@H](O)/C=C/[C@H]1[C@H](O)CC(=O)[C@@H]1CCCCCCC(=O)O [PGE, Prostaglandin E1] | 6.00 | 0.00 | 26.50 | 5.00 | 2.35 | 92.40 | 2.54 | 71.62 | 1.84 | 60.29 | 2.91 | 59.78 | 5.00 | 3.00 | 5.50 | 0.00 | –
5 | CCCCCCCCCCCCCC(=O)O[C@@H]1[C@@H](C)[C@@]2(O)[C@@H](C=C(CO)C[C@]3(O)C(=O)C(C)=C[C@@H]23)[C@@H]2C(C)(C)[C@]12OC(C)=O [PMA, Phorbol Myristate Acetate] | 20.00 | 4.00 | 26.50 | 6.50 | 1.45 | 97.60 | 1.64 | 77.17 | 1.04 | 95.15 | 1.51 | 82.20 | 4.50 | 1.00 | 0.00 | 1.00 | –
6 | CC1=C(/C=C/C(C)=C/C=C/C(C)=C/C(=O)O)C(C)(C)CCC1 [Ret Acid] | 9.00 | 7.00 | 14.00 | 7.00 | 1.21 | 95.30 | 1.48 | 60.67 | – | 88.52 | 1.66 | 45.17 | 1.50 | 10.00 | 4.00 | 0.00 | –
7 | C=C1CCC(O)CC1=CC=C1CCCC2(C)C1CCC2C(C)CCCC(C)C (stereo not drawn) [Vit D3] | 8.00 | 5.50 | 39.00 | 16.00 | 1.95 | 95.86 | 2.37 | 76.06 | 1.64 | 67.44 | 1.82 | 75.13 | 3.00 | 1.50 | 5.00 | 0.50 | –
8 | Nc1ncnc2c1ncn2[C@@H]1O[C@@H]2COP(=O)(O)O[C@H]2[C@H]1O [cAMP, Cyclic Adenosine Monophosphate] | 41.00 | 10.50 | 47.00 | 10.00 | 2.02 | 87.60 | 1.86 | 76.37 | 1.56 | 60.51 | 2.08 | 19.89 | 3.00 | 0.00 | 0.00 | 0.50 | greatest percentages of S100+ cells
9 | CCCC(=O)Nc1ncnc2c1ncn2[C@@H]1O[C@@H]2COP(=O)(O)O[C@H]2[C@H]1OC(=O)CCC [dibutyryl cAMP, Dibutyryl cAMP] | 17.00 | 6.00 | 14.00 | 8.00 | 1.74 | 85.86 | 2.18 | 71.00 | 1.37 | 61.25 | 2.59 | 58.87 | 2.50 | 0.00 | 2.50 | 0.00 | –
10 | Cn1c(=O)c2[nH]cnc2n(C)c1=O [theophylline, Theophylline] | 8.50 | 6.00 | 11.00 | 7.50 | 1.34 | 88.75 | 2.12 | 75.27 | 9.65 | 59.55 | 1.81 | 56.49 | 6.50 | 0.50 | 3.50 | 0.00 | –
11 | IL-4: interleukin-4, Genzyme; added to GM-CSF (protein, UniProt P05112 25-153, looked up) Interleukin-4: HKCDITLQEIIKTLNSLTEQKTLCTELTVTDIFAASKNTTEKETFCRAATVLRQFYSHHEKDTRCLGATAQQFHRHKQLIRFLKRLDRNLWGLAGLNSCPVKEANQSTLENFLERLKTIMREKYSKCSS | – | – | – | – | – | – | – | – | – | – | – | – | – | – | – | – | greatest percentages of S100+ cells
